Source: ChEMBL document CHEMBL4118251 (J Med Chem, 2018)

Experiments:
Type in all cases: functional, cell-based
Glucagon receptor = Glucagon receptor (Homo sapiens, UniProt P47871); experiment: Agonist activity at human glucagon receptor expressed in HEK293 cells assessed as cAMP accumulation after 30 mins by HTRF assay
[1] = molecular target: Glucagon-like peptide 1 receptor (Homo sapiens, UniProt P43220); experiment: Agonist activity at human GLP1R expressed in HEK293 cells assessed as cAMP accumulation after 30 mins by HTRF assay
Chain of Glucagon-like peptide 1 receptor (P43220 whole entry): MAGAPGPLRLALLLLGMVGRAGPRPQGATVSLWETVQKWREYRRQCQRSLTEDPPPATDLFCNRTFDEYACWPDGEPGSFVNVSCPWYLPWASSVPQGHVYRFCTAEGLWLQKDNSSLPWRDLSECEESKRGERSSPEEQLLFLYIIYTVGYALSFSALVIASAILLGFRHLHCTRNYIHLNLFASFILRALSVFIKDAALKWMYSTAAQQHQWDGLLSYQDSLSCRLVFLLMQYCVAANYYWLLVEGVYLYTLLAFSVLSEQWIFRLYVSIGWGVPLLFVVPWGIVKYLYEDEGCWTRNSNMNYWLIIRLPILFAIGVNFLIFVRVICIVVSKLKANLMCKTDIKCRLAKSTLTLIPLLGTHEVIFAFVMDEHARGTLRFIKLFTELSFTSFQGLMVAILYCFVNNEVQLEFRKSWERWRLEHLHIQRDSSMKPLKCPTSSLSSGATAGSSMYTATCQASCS

[2] = molecular target: T1, Gastric inhibitory polypeptide receptor (Homo sapiens, UniProt P48546); experiment: Agonist activity at human GIP receptor expressed in HEK293 cells assessed as cAMP accumulation after 30 mins by HTRF assay
T1 sequence (P48546 whole entry): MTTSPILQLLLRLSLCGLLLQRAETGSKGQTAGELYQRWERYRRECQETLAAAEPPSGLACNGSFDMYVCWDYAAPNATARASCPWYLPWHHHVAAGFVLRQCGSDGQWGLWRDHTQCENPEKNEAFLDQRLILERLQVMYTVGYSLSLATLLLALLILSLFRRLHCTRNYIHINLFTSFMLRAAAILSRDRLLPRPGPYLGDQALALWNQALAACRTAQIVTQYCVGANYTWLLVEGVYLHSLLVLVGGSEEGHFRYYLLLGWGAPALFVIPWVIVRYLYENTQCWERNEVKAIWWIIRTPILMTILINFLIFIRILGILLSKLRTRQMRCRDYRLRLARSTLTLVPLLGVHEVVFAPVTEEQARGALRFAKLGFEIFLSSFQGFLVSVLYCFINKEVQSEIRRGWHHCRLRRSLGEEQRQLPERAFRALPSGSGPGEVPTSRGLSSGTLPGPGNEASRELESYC

Chain of Glucagon receptor (P47871 whole entry): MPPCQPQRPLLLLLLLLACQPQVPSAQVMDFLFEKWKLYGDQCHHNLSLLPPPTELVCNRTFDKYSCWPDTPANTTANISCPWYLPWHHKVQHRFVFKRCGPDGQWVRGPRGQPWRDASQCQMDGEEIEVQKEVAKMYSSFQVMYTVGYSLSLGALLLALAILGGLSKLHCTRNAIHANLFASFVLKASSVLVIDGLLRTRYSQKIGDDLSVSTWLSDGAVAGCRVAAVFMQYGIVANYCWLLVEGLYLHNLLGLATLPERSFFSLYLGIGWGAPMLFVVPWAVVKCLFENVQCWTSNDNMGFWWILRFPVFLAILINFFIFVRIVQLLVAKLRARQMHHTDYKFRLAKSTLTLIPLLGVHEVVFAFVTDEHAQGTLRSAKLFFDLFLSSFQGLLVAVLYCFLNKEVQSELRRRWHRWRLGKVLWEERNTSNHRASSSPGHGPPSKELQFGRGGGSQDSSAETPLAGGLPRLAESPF

| Compound | EC50 (Glucagon receptor) [pM] | EC50 [1] [pM] | EC50 [2] [nM] |
| --- | --- | --- | --- |
| CCCCCCCCCCCCCCCCCCC(=O)N[C@@H](CCC(=O)NCCCC[C@H](NC(=O)[C@H](CCC(N)=O)NC(=O)[C@H](CCCCN)NC(=O)[C@H](CO)NC(=O)[C@H](CC(C)C)NC(=O)[C@H](CC(=O)O)NC(=O)[C@H](CO)NC(=O)[C@@H](NC(=O)[C@H](Cc1ccccc1)NC(=O)[C@@H](NC(=O)CNC(=O)[C@H](CCC(N)=O)NC(=O)C(C)(C)NC(=O)[C@@H](N)Cc1cnc[nH]1)[C@@H](C)O)[C@@H](C)O)C(=O)N[C@@H](CC(=O)O)C(=O)N[C@@H](CCC(=O)O)C(=O)N[C@@H](CCC(N)=O)C(=O)N[C@@H](CCCNC(=N)N)C(=O)N[C@@H](C)C(=O)N[C@@H](CCCCN)C(=O)N[C@@H](CC(C)C)C(=O)N[C@@H](Cc1ccccc1)C(=O)N[C@H](C(=O)N[C@@H](CCC(=O)O)C(=O)N[C@@H](Cc1c[nH]c2ccccc12)C(=O)N[C@@H](CC(C)C)C(=O)N[C@@H](CCCCN)C(=O)N[C@@H](C)C(=O)NCC(=O)NCC(=O)N1CCC[C@H]1C(=O)N[C@@H](CO)C(=O)N[C@@H](CO)C(=O)NCC(=O)N[C@@H](C)C(=O)N1CCC[C@H]1C(=O)N1CCC[C@H]1C(=O)N1CCC[C@H]1C(=O)N[C@@H](CO)C(N)=O)[C@@H](C)CC)C(=O)O | 1.9 | 2.5 | 0.0397 |
| CCCCCCCCCCCCCCCCC(=O)N[C@@H](CCC(=O)N[C@@H](CCC(=O)NCCCC[C@H](NC(=O)[C@H](CCC(N)=O)NC(=O)[C@H](CCCCN)NC(=O)[C@H](CO)NC(=O)[C@H](CC(C)C)NC(=O)[C@H](CC(=O)O)NC(=O)[C@H](CO)NC(=O)[C@@H](NC(=O)[C@H](Cc1ccccc1)NC(=O)[C@@H](NC(=O)CNC(=O)[C@H](CCC(N)=O)NC(=O)C(C)(C)NC(=O)[C@@H](N)Cc1cnc[nH]1)[C@@H](C)O)[C@@H](C)O)C(=O)N[C@@H](CC(=O)O)C(=O)N[C@@H](CCC(=O)O)C(=O)N[C@@H](CCC(N)=O)C(=O)N[C@@H](CCCNC(=N)N)C(=O)N[C@@H](C)C(=O)N[C@@H](CCCCN)C(=O)N[C@@H](CC(C)C)C(=O)N[C@@H](Cc1ccccc1)C(=O)N[C@H](C(=O)N[C@@H](CCC(=O)O)C(=O)N[C@@H](Cc1c[nH]c2ccccc12)C(=O)N[C@@H](CC(C)C)C(=O)N[C@H](C(=O)N[C@@H](C)C(=O)NCC(=O)NCC(=O)N1CCC[C@H]1C(=O)N[C@@H](CO)C(=O)N[C@@H](CO)C(=O)NCC(=O)N[C@@H](C)C(=O)N1CCC[C@H]1C(=O)N1CCC[C@H]1C(=O)N1CCC[C@H]1C(=O)N[C@@H](CO)C(N)=O)[C@@H](C)CC)[C@@H](C)CC)C(=O)O)C(=O)O | 2.5 | 5.3 | 0.0582 |
| CCCCCCCCCCCCCCCCC(=O)N[C@@H](CCC(=O)N[C@@H](CCC(=O)NCCCC[C@H](NC(=O)[C@H](CCC(N)=O)NC(=O)[C@H](CCCCN)NC(=O)[C@H](CO)NC(=O)[C@H](CC(C)C)NC(=O)[C@H](CC(=O)O)NC(=O)[C@H](CO)NC(=O)[C@@H](NC(=O)[C@H](Cc1ccccc1)NC(=O)[C@@H](NC(=O)CNC(=O)[C@H](CCC(N)=O)NC(=O)C(C)(C)NC(=O)[C@@H](N)Cc1cnc[nH]1)[C@@H](C)O)[C@@H](C)O)C(=O)N[C@@H](CC(=O)O)C(=O)N[C@@H](CCC(=O)O)C(=O)N[C@@H](CCC(N)=O)C(=O)N[C@@H](CCCNC(=N)N)C(=O)N[C@@H](C)C(=O)N[C@@H](CCCCN)C(=O)N[C@@H](CC(C)C)C(=O)N[C@@H](Cc1ccccc1)C(=O)N[C@H](C(=O)N[C@@H](CCC(=O)O)C(=O)N[C@@H](Cc1c[nH]c2ccccc12)C(=O)N[C@@H](CC(C)C)C(=O)N[C@@H](CCCCN)C(=O)N[C@@H](C)C(=O)NCC(=O)NCC(=O)N1CCC[C@H]1C(=O)N[C@@H](CO)C(=O)N[C@@H](CO)C(=O)NCC(=O)N[C@@H](C)C(=O)N1CCC[C@H]1C(=O)N1CCC[C@H]1C(=O)N1CCC[C@H]1C(=O)N[C@@H](CO)C(N)=O)[C@@H](C)CC)C(=O)O)C(=O)O | 4.4 | 2.2 | 0.224 |
